# From US20240109934A1, “ANTIBIOTICS WITH IMPROVED DRUG RESISTANCE PROFILE” (priority 2021, published 2024)
# Like-named read-outs stand apart in the source and are kept apart here.
# What was measured:
# S. aureus ATCC 29213 [1] = assay: MIC by micro-dilution broth method (CLSI); format: cell-based
# S. aureus 29213 = assay: MIC shift with 50% human serum; format: cell-based; conditions: S. aureus 29213, 50% human serum vs none
# Experimental: Antimicrobial Susceptibility Tests. Susceptibility testing was performed in biological triplicate, using the micro-dilution broth method as outlined by the Clinical and Laboratory Standards Institute. […] Human serum (Ultrafiltrate, unspecified gender, 30K Dalton membrane filtered) was purchased from BioIVT (Hicksville, NY).
# [2] = Mouse liver microsome stability assay; format: in vitro ADME; conditions: 3 h at 37° C., LC-MS/MS, ± SEM of 3 biological replicates
# Experimental: Mouse Liver Microsome Stability Assay. A mixture of PBS (pH 7.4), NADPH regenerating system solution A (Corning Life Sciences), and NADPH regenerating system solution B (Corning Life Sciences) was incubated at 37° C. in a shaking incubator for 5 min. Next, compound was added in DMSO (final concentration 50 μM, 0.5% DMSO) before ice-cold mouse liver microsomes (Thermo Fisher, male CD-1 mice, pooled) were added (final protein concentration of 1 mg/mL). An aliquot was immediately removed, quenched with an equal volume of 100 μM internal standard and centrifuged at 13,000 rcf for 3 min. The reactions were incubated at 37° C. in a shaking incubator for 3 h. A second aliquot was removed and quenched. Samples were analyzed with the 5500 QTRAP LC/MS/MS system (Sciex, Framingham, MA) in Metabolomics Lab of Roy J. Carver Biotechnology Center, University of Illinois at Urbana-Champaign. Software Analyst 1.6.2 was used for data acquisition and analysis. The 1200 series HPLC system (Agilent Technologies, Santa Clara, CA) includes a degasser, an autosampler, and a binary pump. The LC separation was performed on an Agilent Sb-Aq column (4.6×50 mm, […]) with mobile phase A (0.1% formic acid in water) and mobile phase B (0.1% formic acid in acetonitrile). The flow rate was 0.3 mL/min. The linear gradient was as follows: 0-3 min, 100% A; 10-16 min, 5% A; 16.5-22 min, 100% A. The autosampler was set at 10° C. The injection volume was 1 μL. Mass spectra were acquired under both positive (ion spray voltage was +5500 V) and negative (ion spray voltage was −4500 V) electrospray ionization (ESI). The source temperature was 450° C. The curtain gas, ion source gas 1, and ion source gas 2 were 33, 65, and 60 psi, respectively. Multiple reaction monitoring (MRM) was used for quantitation.
# [3] = test system: human foreskin fibroblasts (HFF-1); assay: Cell viability, Alamar Blue assay; format: cell-based; conditions: 72 h incubation, error SEM n = 2, read-out: IC50, Mammalian Toxicity in HFF-1
# Experimental: Cell Culture. HFF-1 cells were obtained from ATCC. HFF-1 cells were grown in DMEM with 15% fetal bovine serum (Gemini Benchmark, Cat #100-106), 100 U/mL penicillin, and 100 μg/mL streptomycin. All cells were cultured at 37° C. in a 5% CO2 environment. Media was prepared by the University of Illinois School of Chemical Sciences Cell Media Facility.
# Cell Viability. Cells were harvested, seeded in a 96 well-plate and allowed to adhere. Cells were treated with investigational compounds in DMSO (1% final concentration). Cells were incubated for 72 h before viability was assessed by the Alamar Blue Assay. Raptinal ([…]) was used as a dead control.
# S. aureus ATCC 29213 [4] = assay: Resistance frequency, large inoculum method; format: cell-based
# Experimental: Selection of Resistant Mutants. Resistant mutants were selected via the large inoculum method. Briefly, S. aureus ATCC 29213 (1×10^9 CFU) were plated on 100 mm plates of LB agar containing 4, 2, 1, 0.5, and 0.25 μg/mL.
# Mouse MTD / tolerability = conditions: mouse, in vivo, ip, 50 mg/kg
# Experimental: The protocol was approved by the IACUC at the University of Illinois at Urbana-Champaign (Protocol Number: 16144 and 19181). In these studies, 10- to 12-week-old female C57BL/6 mice purchased from Charles River were used. The maximum tolerated dose (MTD) of single compound was determined first. […] All the mice were monitored for signs of toxicity for 2 weeks. For multiple doses, the compound was given by daily IP for 4 consecutive days, and mice were monitored for signs of toxicity for 1 month. MTD was the highest dosage with acceptable toxicity (e.g., <20% weight loss).
Structure (SMILES),Antibacterial activity relative to FA (S. aureus ATCC 29213 [1]; S. aureus ATCC 29213 MIC),"MIC (S. aureus ATCC 29213 [1]; Staphylococcus aureus, ATCC29213, WT S. aureus ATCC 29213, n = 3, read-out: MIC Without Human Serum)",Fold Change Increase in MIC with 50% Human Serum (S. aureus 29213),Metabolic Stability in Mouse Liver Microsomes (percent remaining) [2],IC50 [3],"IC50 ([3]; Homo sapiens, HFF-1, 72 h)","Resistance frequency relative to FA (S. aureus ATCC 29213 [4]; head-to-head with FA, 2×-32× the MIC)",Resistance frequency relative to FA (S. aureus ATCC 29213 [4]; only at 32× the MIC),Tolerability (Mouse MTD / tolerability)
"CC(=O)O[C@H]1C[C@@]2(C)[C@@H](C[C@@H](O)[C@H]3[C@@]4(C)CC[C@@H](O)[C@@H](C)[C@@H]4CC[C@@]32C)/C1=C(\CCC=C1CCCCC1)C(=O)O [Compound 26, (Z)-2-((3R,4S,5S,8S,9S,10S,11R,13R,14S,16S)-16-acetoxy-3,11-dihydroxy-4,8,10,14-tetramethylhexadecahydro-17H-cyclopenta[a]phenanthren-17-ylidene)-5-cyclohexylidenepentanoic acid]",equipotent activity to FA,0.125 µg/mL,16X,61 ± 1%,53 ± 4 µM,> 50 µM,improvement in resistance frequency relative to FA,improvement,
"CC(=O)O[C@H]1C[C@@]2(C)[C@@H](C[C@@H](O)[C@H]3[C@@]4(C)CC[C@@H](O)[C@@H](C)[C@@H]4CC[C@@]32C)/C1=C(\CCC=C(C)C)C(=O)O [Sodium fusidate, reference compound]",,,,,,,,,well tolerated
